Among the data in patent US20220298135A1, “5-HETEROARYL-PYRIDIN-2-AMINE COMPOUNDS AS NEUROPEPTIDE FF RECEPTOR ANTAGONISTS” (Domain Therapeutics, priority 2019, published 2022) are melting point and IC50 values, retold here.

Data set [1] deals with T1, human NPFFR1 (hNPFFR1) receptor (Homo sapiens, UniProt Q9GZQ6).
T1 construct: expressed in transfected cells; host or cells: HEK-293 T cells, transient co-transfection with polyethylenimine
Briefly: Human NPFFR1 evaluation using BRET biosensors (antagonist IC50). It counts as cell-based. As to conditions: hNPFFR1 transiently over-expressed in HEK-293 T cells; BRET signal; stimulation by EC80 RFRP-3. A digest of the protocol:
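HEK-293T cells co-transfected with receptor, GαoB and Gi-effector BRET biosensor pair, assayed 48 h later. Compound 10 min, then EC80 RFRP-3 with 10 min luminescence read; IC50 from 20-concentration variable-slope fit, duplicate, two independent experiments.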
On the technique in general: Bioluminescence resonance energy transfer reports proximity on the nanometre scale.

T1 sequence (Q9GZQ6 whole entry): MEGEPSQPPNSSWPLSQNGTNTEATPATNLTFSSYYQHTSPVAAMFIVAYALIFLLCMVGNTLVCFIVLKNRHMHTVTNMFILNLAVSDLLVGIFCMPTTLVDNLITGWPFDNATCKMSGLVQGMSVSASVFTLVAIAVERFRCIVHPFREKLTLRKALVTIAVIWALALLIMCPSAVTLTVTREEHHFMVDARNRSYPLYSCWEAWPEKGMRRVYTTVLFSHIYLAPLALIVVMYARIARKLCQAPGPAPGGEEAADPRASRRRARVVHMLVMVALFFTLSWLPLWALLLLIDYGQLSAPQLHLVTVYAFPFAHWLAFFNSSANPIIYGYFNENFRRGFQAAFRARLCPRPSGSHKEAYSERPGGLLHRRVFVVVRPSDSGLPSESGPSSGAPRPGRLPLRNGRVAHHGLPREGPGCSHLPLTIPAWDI

`CCc1nc(N)ccc1-c1cccc2ccc(N3CCC(F)(F)CC3)nc12.Cl` [Example 132, 5-(2-(4,4-difluoropiperidin-1-yl)quinolin-8-yl)-6-ethylpyridin-2-amine] came in with a melting point of 120 to 141 °C. The IC50 in data set [1] was less than 100 nM.
Compound `CCc1nc(N)ccc1-c1cccc2ccc(N3CCCOCC3)nc12.Cl` [Example 133, 5-(2-(1,4-oxazepan-4-yl)quinolin-8-yl)-6-ethylpyridin-2-amine] yielded a melting point of 50 to 90 °C. The IC50 in data set [1] was less than 100 nM.
As for `CCc1nc(N)ccc1-c1c(F)ccc2ccc(N3CCCOCC3)nc12.Cl` [Example 134, 6-ethyl-5-(7-fluoro-2-(1,4-oxazepan-4-yl)quinolin-8-yl)pyridin-2-amine], the melting point lay within 100 to 150 °C. In data set [1], the IC50 is less than 100 nM.
As for `CCc1nc(N)ccc1-c1c(F)ccc2ccc(N3CCOCC3)nc12.Cl` [Example 135, 6-ethyl-5-(7-fluoro-2-morpholinoquinolin-8-yl)pyridin-2-amine], the melting point is 100 to 146 °C. The compound also showed a concentration for half-maximal inhibition (IC50) in data set [1] of less than 100 nM.
Compound `CCc1nc(N)ccc1-c1c(F)ccc2ccc(N3CC4CCC(C3)O4)nc12.Cl` [Example 136, 5-(2-(8-oxa-3-azabicyclo[3.2.1]octan-3-yl)-7-fluoroquinolin-8-yl)-6-ethylpyridin-2-amine] showed a melting point of 140 to 172 °C. The IC50 in data set [1] is less than 100 nM.
`CCc1nc(N)ccc1-c1c(F)ccc2ccc(N3CCCCCC3)nc12.Cl` [Example 137, 5-(2-(azepan-1-yl)-7-fluoroquinolin-8-yl)-6-ethylpyridin-2-amine] had a melting point of 110 to 145 °C. This compound came in with an IC50 in data set [1] of less than 100 nM.
For `CCc1nc(N)ccc1-c1cccc2ccc(C(=O)N3CCCC3)nc12.Cl` [Example 141, (8-(6-amino-2-ethylpyridin-3-yl)quinolin-2-yl)(pyrrolidin-1-yl)methanone], in that order: 100 to 125 °C and less than 100 nM.
Take `CCc1nc(N)ccc1-c1cccc2ccc(COC)nc12.Cl` [Example 142, 6-ethyl-5-(2-(methoxymethyl)quinolin-8-yl)pyridin-2-amine]: the melting point fell in the range of 210 to 225 °C. This compound yielded an IC50 in data set [1] of less than 100 nM.
`CCc1nc(N)ccc1-c1c(F)cc(F)c2cc(F)cnc12.Cl` [Example 145, 6-ethyl-5-(3,5,7-trifluoroquinolin-8-yl)pyridin-2-amine] gave a melting point of 110 to 120 °C. Also, the IC50 in data set [1] was less than 100 nM.
`CCc1nc(N)ccc1-c1c(F)c(F)cc2cc(F)cnc12.Cl` [Example 150, 6-ethyl-5-(3,6,7-trifluoroquinolin-8-yl)pyridin-2-amine] registered a melting point of 120 to 130 °C. The compound further showed an IC50 in data set [1] of less than 100 nM.
In turn, `CCc1nc(N)ccc1-c1c(C(N)=O)ccc2cccnc12.Cl` [Example 152, 8-(6-amino-2-ethylpyridin-3-yl)quinoline-7-carboxamide] showed a melting point of 150 to 164 °C. The IC50 in data set [1] is more than 1000 nM.
Regarding `CCc1nc(N)ccc1-c1cccc2ccc(=O)[nH]c12.Cl` [Example 154, 8-(6-amino-2-ethylpyridin-3-yl)quinolin-2(1H)-one], the melting point is more than 250 °C. Moreover, the IC50 in data set [1] was in the range of 100 to 1000 nM.
Compound `CCc1nc(N)ccc1-c1cccc2c1NC(=O)CC2.Cl` [Example 155, 8-(6-amino-2-ethylpyridin-3-yl)-3,4-dihydroquinolin-2(1H)-one] showed a melting point of 233 to 237 °C. Besides, the IC50 in data set [1] was 100 to 1000 nM.
With `CCc1nc(N)ccc1-c1cccc2ccc(=O)n(C)c12.Cl` [Example 156, 8-(6-amino-2-ethylpyridin-3-yl)-1-methylquinolin-2(1H)-one], the melting point was 132 to 145 °C. Also, the IC50 in data set [1] is more than 1000 nM.
Take `CCc1nc(N)ccc1-c1c(F)ccc2ccc(=O)[nH]c12.Cl` [Example 158, 8-(6-amino-2-ethylpyridin-3-yl)-7-fluoroquinolin-2(1H)-one]: the melting point fell in the range of 172 to 208 °C. In data set [1], this compound displayed an IC50 of 100 to 1000 nM.
With `CCc1nc(N)ccc1-c1c(F)cc(F)c2ccc(=O)[nH]c12.Cl` [Example 159, 8-(6-amino-2-ethylpyridin-3-yl)-5,7-difluoroquinolin-2(1H)-one], the melting point is more than 250 °C. Also, the concentration for half-maximal inhibition (IC50) in data set [1] lay within 100 to 1000 nM.
Compound `CCc1nc(N)ccc1-c1c(F)c(F)cc2ccc(O)nc12.Cl` [Example 161, 8-(6-amino-2-ethylpyridin-3-yl)-6,7-difluoroquinolin-2(1H)-one] yielded a melting point of more than 250 °C. The compound also yielded an IC50 in data set [1] of 100 to 1000 nM.
For `CCc1nc(N)ccc1-c1cccc2c1N(C)CC2.Cl` [Example 162, 6-ethyl-5-(1-methylindolin-7-yl)pyridin-2-amine], in that order: more than 250 °C and 100 to 1000 nM.
In the case of `CCc1nc(N)ccc1-c1cccc2c1NC(=O)C2.Cl` [Example 163, 7-(6-amino-2-ethylpyridin-3-yl)indolin-2-one], the melting point was more than 250 °C. The compound further registered a half-inhibitory concentration (IC50) in data set [1] of 100 to 1000 nM.
`CCc1nc(N)ccc1-c1cccc2c1NCC2.Cl` [Example 164, 6-ethyl-5-(indolin-7-yl)pyridin-2-amine] gave a melting point of 175 to 183 °C. Besides, the IC50 in data set [1] fell in the range of 100 to 1000 nM.
`CCc1nc(N)ccc1-c1cccc2c1N(C)CCC2.Cl` [Example 165, 6-ethyl-5-(1-methyl-1,2,3,4-tetrahydroquinolin-8-yl)pyridin-2-amine] displayed a melting point of 155 to 165 °C. For the same compound, the IC50 in data set [1] lay within 100 to 1000 nM.
On to `CCc1nc(N)ccc1-c1cccc2ccc(C(=O)N3CCOCC3)nc12.Cl` [Example 166, (8-(6-amino-2-ethylpyridin-3-yl)quinolin-2-yl)(morpholino)methanone], for which the melting point lay in the range of 130 to 135 °C. In addition, the IC50 in data set [1] is less than 100 nM.
Regarding `CCc1nc(N)ccc1-c1cccc2ccc(C(=O)N3CCCOCC3)nc12.Cl` [Example 167, (8-(6-amino-2-ethylpyridin-3-yl)quinolin-2-yl)(1,4-oxazepan-4-yl)methanone], the melting point is 120 to 131 °C. In data set [1], this compound gave an IC50 of less than 100 nM.
On to `CCc1nc(N)ccc1-c1cccc2ccc(C(=O)N(CC)C3CCCCC3)nc12.Cl` [Example 168, 8-(6-amino-2-ethylpyridin-3-yl)-N-cyclohexyl-N-ethylquinoline-2-carboxamide], for which the melting point was in the range of 142 to 148 °C. Moreover, the IC50 in data set [1] is less than 100 nM.
`CCc1nc(N)ccc1-c1cccc2ccc(C(=O)N3CCCCCC3)nc12.Cl` [Example 169, (8-(6-amino-2-ethylpyridin-3-yl)quinolin-2-yl)(azepan-1-yl)methanone] yielded a melting point of 140 to 144 °C. The same compound returned an IC50 in data set [1] of less than 100 nM.
`CCc1nc(N)ccc1-c1cccc2ccc(C(=O)N(CC)C(C)C)nc12.Cl` [Example 170, 8-(6-amino-2-ethylpyridin-3-yl)-N-ethyl-N-isopropylquinoline-2-carboxamide] displayed a melting point of 121 to 125 °C. Further, the IC50 in data set [1] is less than 100 nM.
For `CCc1nc(N)ccc1-c1cccc2ccc(C(=O)N3CC4CCC(C3)O4)nc12.Cl` [Example 171, (8-(6-amino-2-ethylpyridin-3-yl)quinolin-2-yl)(8-oxa-3-azabicyclo[3.2.1]octan-3-yl)methanone], in that order: 150 to 160 °C and less than 100 nM.
As to `CCc1nc(N)ccc1-c1cccc2ccc(C(=O)N3CCC(c4ccccc4)CC3)nc12.Cl` [Example 172, (8-(6-amino-2-ethylpyridin-3-yl)quinolin-2-yl)(4-phenylpiperidin-1-yl)methanone], the melting point is more than 250 °C. Also, the IC50 in data set [1] lay within 100 to 1000 nM.
`CCc1nc(N)ccc1-c1cccc2ccc(C(=O)NC3CCOCC3)nc12.Cl` [Example 173, 8-(6-amino-2-ethylpyridin-3-yl)-N-(tetrahydro-2H-pyran-4-yl)quinoline-2-carboxamide] returned a melting point of 112 to 125 °C. Besides, the IC50 in data set [1] was less than 100 nM.
In turn, `CCc1nc(N)ccc1-c1cccc2ccc(C(=O)NCc3ccccc3)nc12.Cl` [Example 174, 8-(6-amino-2-ethylpyridin-3-yl)-N-benzylquinoline-2-carboxamide] came in with a melting point of 102 to 114 °C. In data set [1], the IC50 is less than 100 nM.
`CCc1nc(N)ccc1-c1c(F)ccc2c1OCCC2.Cl` [Example 176, 6-ethyl-5-(7-fluorochroman-8-yl)pyridin-2-amine] gave a melting point of 85 to 95 °C. This compound registered an IC50 in data set [1] of less than 100 nM.
For `CCc1nc(N)ccc1-c1c(F)ccc2c1OC(C)(C)CC2.Cl` [Example 177, 6-ethyl-5-(7-fluoro-2,2-dimethylchroman-8-yl)pyridin-2-amine], in that order: 80 to 90 °C and less than 100 nM.
`CCc1nc(N)ccc1-c1c(F)ccc2c1OCC=CC2.Cl` [Example 178, 6-ethyl-5-(8-fluoro-2,5-dihydrobenzo[b]oxepin-9-yl)pyridin-2-amine] returned a melting point of 43 to 52 °C. This compound came in with an IC50 in data set [1] of less than 100 nM.
Compound `CCc1nc(N)ccc1-c1c(F)ccc2c1OCCCC2.Cl` [Example 179, 6-ethyl-5-(8-fluoro-2,3,4,5-tetrahydrobenzo[b]oxepin-9-yl)pyridin-2-amine] displayed a melting point of 47 to 65 °C. The compound further had an IC50 in data set [1] of less than 100 nM.

The term melting point denotes the temperature, or range, at which the solid turns liquid. The term IC50 denotes the concentration that gives 50% inhibition.
